Test results: patent publication US3983105A, “Penicillins” (Bayer Aktiengesellschaft, priority 1971, dated 1976)
Values joined by “and” are separate entries in the source; they are usually repeats but may differ in a detail not shown here. Equal entries are not always repeated.

Key:
Type in all cases: cell-based
Pseudomonas aeruginosa = assay: MIC, test tube serial dilution, Pseudomonas aeruginosa
Klebsiella-Aerobacter = assay: MIC, test tube serial dilution, Klebsiella-Aerobacter
Escherichia coli = assay: MIC, test tube serial dilution, Escherichia coli; conditions: 24 hours, 37°C
Proteus morganii = assay: MIC, test tube serial dilution, Proteus morganii; conditions: unit assumed
Proteus vulgaris = assay: MIC, test tube serial dilution, Proteus vulgaris
Streptococcus faecalis = assay: MIC, test tube serial dilution, Streptococcus faecalis
Staphylococcus aureus = assay: MIC, test tube serial dilution, Staphylococcus aureus; conditions: strain 1756 (BRL 1 756); 24 hours, 37°C

Structure (SMILES) | MIC (Pseudomonas aeruginosa; strain Bonn, 24 hours, 37°C) [U/ml] | MIC (Pseudomonas aeruginosa; strain Walter, 24 hours, 37°C) [U/ml] | MIC (Klebsiella-Aerobacter; strain 63, 24 hours, 37°C) [U/ml] | MIC (Klebsiella-Aerobacter; strain K 10, 24 hours, 37°C) [U/ml] | MIC (Escherichia coli; strain 183/58) [U/ml] | MIC (Escherichia coli; strain A 261) [U/ml] | MIC (Proteus morganii) [µg/mL] | MIC (Proteus vulgaris; unit assumed) [µg/mL] | MIC (Streptococcus faecalis; ATCC 9790, 24 hours, 37°C) [U/ml] | MIC (Staphylococcus aureus) [U/ml] | MIC (Pseudomonas aeruginosa; in µg/mL (unit assumed)) | MIC (Klebsiella-Aerobacter; in µg/mL (unit assumed)) | MIC (Streptococcus faecalis; unit assumed) [µg/mL] | MIC (Proteus vulgaris; strain 1017, 24 hours, 37°C) [U/ml] | MIC (Pseudomonas aeruginosa; strain F 41, 24 hours, 37°C) [U/ml]
CC(=O)N1CCN(C(=O)N[C@@H](C(=O)N[C@@H]2C(=O)N3[C@@H]2SC(C)(C)[C@@H]3C(=O)O)c2ccccc2)C1=O [Example 1, Sodium D(-)-α-[(3-acetyl-imidazolidin-2-on-1-yl)-carbonylamino]-benzylpenicillin] | 25 | 50 | 25 | 100 | 3 | 400 | 6 | 6 | 25 | 400 |  |  |  |  | 
COC(=O)N1CCN(C(=O)N[C@@H](C(=O)N[C@@H]2C(=O)N3[C@@H]2SC(C)(C)[C@@H]3C(=O)O)c2ccccc2)C1=O [Example 3, Sodium D(-)-α-[(3-methoxycarbonyl-imidazolidin-2-on-1-yl)-carbonylamino]-benzylpenicillin] | 16 | 16 | 16 | 16 | 4 |  | 8 | 8 | 64 | > 256 |  |  |  |  | 
CC1(C)S[C@@H]2[C@H](NC(=O)[C@H](NC(=O)N3CCN(C(N)=O)C3=O)c3ccccc3)C(=O)N2[C@H]1C(=O)O [Example 5, Sodium D(-)-α-[(3-aminocarbonyl-imidazolidin-2-on-1-yl)-carbonylamino]-benzylpenicillin] |  |  | 16 |  | 4 | 256 | 32 |  |  | > 256 | 32 | 32 | 32 |  | 
CC(C)OC(=O)N1CCN(C(=O)N[C@@H](C(=O)N[C@@H]2C(=O)N3[C@@H]2SC(C)(C)[C@@H]3C(=O)O)c2ccccc2)C1=O [Example 7, Sodium D(-)-α-[(3-i-propyloxycarbonyl-imidazolidin-2-on-1-yl)-carbonylamino]-benzylpenicillin] | 16 |  |  |  | < 1 | > 256 |  |  | 16 | 128 | 8 |  |  | 16 | 
CC1(C)S[C@@H]2[C@H](NC(=O)[C@H](NC(=O)N3CCN(C(=O)N4CCCC4)C3=O)c3ccccc3)C(=O)N2[C@H]1C(=O)O [Example 8, Sodium D(-)-α-[(3-pyrrolidyl-N-carbonyl-imidazolidin-2-on-1-yl)-carbonylamino]-benzylpenicillin] |  |  |  |  | 4 |  | 64 | 32 |  | 128 | 32 |  | 128 |  | 
CC1(C)S[C@@H]2[C@H](NC(=O)[C@H](NC(=O)N3CCN(C(=O)Nc4ccccc4)C3=O)c3ccccc3)C(=O)N2[C@H]1C(=O)O [Example 10, Sodium D(-)-α-[(3-phenylaminocarbonyl-imidazolidin-2-on-1-yl)-carbonylamino]-benzylpenicillin] | 64 | 256 |  |  | 4 | > 256 |  | 8 |  | > 256 |  | 8 | 128 |  | 
CC1(C)S[C@@H]2[C@H](NC(=O)[C@H](NC(=O)N3CCN(C(=O)Oc4ccccc4)C3=O)c3ccccc3)C(=O)N2[C@H]1C(=O)O [Example 11, Sodium D(-)-α-[(3-phenoxycarbonyl-imidazolidin-2-on-1-yl)-carbonylamino]-benzylpenicillin] |  |  |  |  |  |  | 8 | 16 |  |  | 32 and 16 | 4 | 16 |  | 
CC1(C)S[C@@H]2[C@H](NC(=O)[C@H](NC(=O)N3CCN(C(=O)c4ccccc4)C3=O)c3ccccc3)C(=O)N2[C@H]1C(=O)O [Example 12, Sodium D(-)-α-[(3-benzoyl-imidazolidin-2-on-1-yl)-carbonylamino]-benzylpenicillin] |  |  |  |  | < 1 | 64 | 8 |  |  | 256 | 32 | 8 | 32 |  | 
CC1(C)S[C@@H]2[C@H](NC(=O)[C@H](NC(=O)N3CCN(C(=O)c4ccco4)C3=O)c3ccccc3)C(=O)N2[C@H]1C(=O)O [Example 13, Sodium D(-)-α-[(3-furoyl(2)-imidazolidin-2-on-1-yl)-carbonylamino]-benzylpenicillin] |  | 16 |  |  | < 1 |  |  |  | 16 | 128 |  | 8 |  |  | 16
